“And” between values parts separate entries of the source, which are not always exact repeats. Identical values can stand only once. “Also recorded” adds a separate entry of the source.
How the values were obtained:
[1] = tested on: ZDF rats; assay: Plasma glucose in ZDF rats, (−) halofenate vs (+) halofenate (Example 13); type: in vivo; conditions: 50 mg/kg oral once a day for 3 days
Experimental: Male 8-9 week old ZDF rats were purchased from Genetic Models, Inc. (Indianapolis, Ind.). […] Rats that had 4-hour fasting plasma glucose levels between 200 and 500 mg/dL were used. […] The gavage volume was 5 ml/kg. Blood samples were taken at 5 hours post dose on day 2 and 3.

[2] = tested on: Zucker fa/fa rats; assay: Short insulin tolerance test in Zucker fatty rats (Example 10); type: in vivo; conditions: 50 mg/kg/day oral for 5 days
Experimental: (§1) Prior to treatment, rats were assigned to 6 groups based on body weight. Each treatment group consisted of 8 rats. […] The gavage volume was 10 ml/kg. All rats received an oral glucose challenge (1.9 g/kg) 5.5 hours after the treatment and 4 hours after withdrawal of the food. Blood samples were taken at 0, 15, 30, 60, 90, 120, and 180 minutes following the glucose challenge for plasma glucose measurement. […] On day 5, rats received the intravenous insulin (0.75 U/kg) 5.5 hours after the last dose and 4 hours after withdrawal of the food. Blood samples were taken at 3, 6, 9, 12, 15 and 18 minutes following the insulin injection for plasma glucose measurement.

[3] = tested on: oxonic acid induced hyperuricemic rats; assay: Plasma uric acid in oxonic acid induced hyperuricemic rats (Example 17); type: in vivo, SD rats; conditions: oral 50 mg/kg for 3 days, 100 mg/kg on the 4th day; blood 6 hours post gavage on day 4
Text: Male SD rats, weight 275-300 g were purchased from Charles River. […] To establish a hyperuricemic state, animals were put on a diet containing 2.5% (w/w) of oxonic acid (Sigma Chemical Co, St. Louis, Mo., USA) throughout the experiment. Oxonic acid elevates plasma uric acid by inhibiting uricase. Rats were screened for plasma uric acid levels 3 days after they were placed on the diet, and those that had extreme plasma uric acid levels were excluded. Rats were assigned to one of three groups and the mean uric acid levels were equivalent in each group. […] Oxonic acid was delivered in a liquid formulation containing 0.9% (w/v) methylcellulose. The gavage and injection volumes were 5 ml/kg. Blood samples were taken at 6 hours post oral gavage on day 4. Plasma uric acid levels were determined colorimetrically using the Infinity Uric Acid Reagent (Sigma Chemical Co, St. Louis, Mo., USA).

[4] = tested on: C57BL/6J ob/ob mice; assay: Glucose and insulin lowering on daily oral administration in diabetic ob/ob mice (Example 9); type: in vivo
Experimental: The gavage volume was 10 ml/kg.

[5] = tested on: C57BL/6J ob/ob mice; assay: Time course of glucose-lowering after a single oral dose in diabetic ob/ob mice (Example 8); type: in vivo; conditions: single oral dose 250 mg/kg; for time course of glucose-lowering, in words: 250 mg/kg
[6] = Pharmacokinetic study of (±) halofenate and (−) halofenate in SD rats (Example 14); type: in vivo; conditions: single oral (−) halofenate 50 mg/kg, Rats 8, 9, 11 individually, BQL <1.00 μg/mL
Experimental: Male 225-250 g SD rats were purchased from Charles River. […] A catheter was placed in the left carotid artery under sodium pentobarbital (50 mg/kg i.p.) and animals were allowed to recover for 2 days before treatment. […] The gavage volume was 5 ml/kg. Blood samples were collected at 1, 2, 4, 6, 8, 12, 24, 48, 72, 96 and 120 hours post dose. The plasma samples were analyzed for each enantiomeric acid ((−) halofenic acid and (+) halofenic acid) by a chiral specific HPLC assay, since the esters are prodrugs, which are designed to convert to their respective enantiomeric acids in vivo.

[7] = molecular target: T1, cyclooxygenase 1 (COX-1) (Homo sapiens, UniProt P23219); assay: COX-1 inhibition in human whole blood assay, TXB2 production (Example 19); type: cell-based
T1 construct: was conducted using fresh human blood from healthy donors; endogenous in cells; host or cells: heparinized fresh human whole blood, stimulated with calcium ionophore A23187
T1 sequence (P23219 24-599): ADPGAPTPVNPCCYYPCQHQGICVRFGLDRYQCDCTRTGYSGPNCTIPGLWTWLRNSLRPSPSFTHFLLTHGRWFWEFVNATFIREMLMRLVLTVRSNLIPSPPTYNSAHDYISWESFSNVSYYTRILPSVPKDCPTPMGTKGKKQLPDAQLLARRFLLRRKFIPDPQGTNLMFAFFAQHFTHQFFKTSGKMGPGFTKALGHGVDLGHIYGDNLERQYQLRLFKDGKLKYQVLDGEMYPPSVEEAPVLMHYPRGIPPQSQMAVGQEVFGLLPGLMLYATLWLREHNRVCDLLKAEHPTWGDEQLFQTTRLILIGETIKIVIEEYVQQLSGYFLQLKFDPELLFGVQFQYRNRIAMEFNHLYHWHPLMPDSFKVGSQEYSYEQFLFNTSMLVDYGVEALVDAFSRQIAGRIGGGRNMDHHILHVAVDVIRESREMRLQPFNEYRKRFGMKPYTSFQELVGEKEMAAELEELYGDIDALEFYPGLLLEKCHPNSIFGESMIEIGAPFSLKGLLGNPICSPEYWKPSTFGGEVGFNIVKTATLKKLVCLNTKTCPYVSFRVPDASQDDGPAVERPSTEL
Experimental: An assay for cyclooxygenase 1 (COX-1) inhibition by the compounds of the present invention was conducted using fresh human blood from healthy donors. […] The enzyme was activated by the commercially available calcium ionophore A23187.
This bioassay is based on the production of thromboxane B2 (TXB2) after COX-1 activation. When activated, COX-1 generates prostaglandin H2 which is then converted to thromboxane A2 (TXA2) by thromboxane synthase and then finally to thromboxane B2 by non-enzymatic […]. In addition, PGE2 levels were measured to exclude inhibition of thromboxane synthase. This assay allows discrimination between COX-1 and thromboxane synthase inhibition.
TXB2 and PGE2 were measured by commercially available immunoassay kits purchased from Assay Designs, Inc. (Ann Arbor, Mich.). All other chemicals were from Sigma except as noted. […] Immediately before use, all compounds were diluted 1:10 in RPMI-1640 medium (Gibco BRL, 11875-093) to make a 10× concentrated stock solution. The 10×RPMI-1640 stock solutions of the calcium ionophore were prepared in an identical manner. […] COX-1 was then activated by adding 25 microliters of the 10× stock solution of 25 micromolar calcium ionophore. The plates were shaken for 10 minutes at room temperature and then incubated at 37° C. for an additional 30 minutes. After these incubation times, the plates were centrifuged at 2,000 g for 5 minutes. Two microliters of plasma were taken from each reaction for the measurement of TXB2 using an enzyme immunoassay kit from Assay Designs, Inc. The PGE2 level in the same reaction was measured using a PGE2 enzyme immunoassay kit from Assay Designs, Inc.
The results of the assay are presented as the percent inhibition of COX-1 activity.

[8] = tested on: Zucker fa/fa rats; assay: Oral glucose challenge in Zucker fatty rats (Example 10); type: in vivo
Experimental: as §1

[9] = tested on: Zucker diabetic fatty (ZDF) rats; assay: Lipid lowering in Zucker Diabetic Fatty rats (Example 11); type: in vivo; conditions: for plasma cholesterol, in words: Experiment I, 13 days, racemate 50 mg/kg/day, enantiomers 25 mg/kg/day; for plasma cholesterol lowering, in words / plasma triglyceride, in words: 37.5 mg/kg/day (High dose), 37.5 mg/kg/day
Experimental: Male Zucker diabetic fatty (ZDF) rats were obtained from GMI Laboratories (Indianapolis, Ind.) at 9 weeks of age. Vehicle or enantiomers of halofenate administered by oral gavage on a daily basis starting at 74 days of age. Initial blood samples were obtained for analysis one day before treatment and at the indicated times in the treatment protocol. Blood was analyzed for plasma triglyceride and cholesterol by standard techniques.

[10] = daily oral, racemate 250 mg/kg/day, enantiomers 125 and 250 mg/kg/day
[11] = Experiment II, listed as (−) enantiomer

**Q.** For `CC(=O)NCCOC(=O)C(Oc1cccc(C(F)(F)F)c1)c1ccc(Cl)cc1` (single isomer, unassigned; (-)) [(−) halofenate, (−) 2-acetamidoethyl 4-chlorophenyl-(3-trifluoromethylphenoxy)acetate], which “plasma glucose concentrations compared to vehicle-treated animals, in words” value [1] is on record?
**A.** significantly reduced plasma glucose concentrations

**Q.** And the “insulin sensitivity (slope of decline in glucose after i.v. insulin), in words” value [2]?
**A.** improved significantly; also recorded: significantly more insulin sensitive

**Q.** And the “plasma uric acid levels, in words” value [3]?
**A.** significantly reduced plasma uric acid levels

**Q.** And the “overnight fasting plasma insulin after 5 days treatment, in words” value ([4]; 125 mg/kg/day oral, ob/ob mice)?
**A.** Significantly lower plasma insulins

**Q.** What about the “time points after first dose with significantly reduced plasma insulin” value ([4]; 125 mg/kg/day oral, ob/ob mice) of the same molecule?
**A.** 27 h

**Q.** What about the “overnight fasting plasma insulin after 5 days treatment, in words” value ([4]; 250 mg/kg/day oral, ob/ob mice) of the same molecule?
**A.** Significantly lower plasma insulins

**Q.** What about the “time points after first dose with significantly reduced plasma glucose” value ([4]; 250 mg/kg/day oral, ob/ob mice) of the same molecule?
**A.** 3 h

**Q.** What about the “time points after first dose with significantly reduced plasma insulin” value ([4]; 250 mg/kg/day oral, ob/ob mice) of the same molecule?
**A.** 27 h and 30 h

**Q.** And the “plasma glucose following an overnight fast after 5 days treatment” value ([4]; 250 mg/kg/day oral, ob/ob mice, control 185.4±12.3)?
**A.** 127.3 ± 8.0 mg/dL

**Q.** What about the “plasma glucose relative to control animals, in words” value [4, 10] of the same molecule?
**A.** Significant decreases in glucose levels

**Q.** And the “plasma insulin relative to vehicle control, in words” value [4, 10]?
**A.** insulins were lower

**Q.** What about the “earliest time of plasma glucose reduction / significant activity” value [5] of the same molecule?
**A.** 1.5 h

**Q.** And the “time of peak glucose-lowering activity” value [5]?
**A.** 3 h

**Q.** What about the “time course of glucose-lowering, in words” value [5] of the same molecule?
**A.** more rapid onset and sustained longer

**Q.** What about the “time course of glucose-lowering, in words” value ([5]; listed as (−) enantiomer) of the same molecule?
**A.** most rapid onset of action and the longest duration of action; also recorded: more effective and significantly different (p<0.05) from the (+) enantiomer at both the 3 hour and 24 hour time points

**Q.** And the “plasma glucose at 24 hours” value ([5]; vehicle 408±16.2)?
**A.** 217 ± 16.4 mg/dL

**Q.** What about the “Plasma concentration of (+) halofenic acid” value ([6]; time 0 hour) of the same molecule?
**A.** BQL

**Q.** What about the “Plasma concentration of (−) halofenic acid” value ([6]; time 0 hour) of the same molecule?
**A.** BQL

**Q.** What about the “Plasma concentration of (+) halofenic acid” value ([6]; time 1 hour) of the same molecule?
**A.** BQL

**Q.** And the “Plasma concentration of (+) halofenic acid” value ([6]; time 2 hours)?
**A.** BQL

**Q.** And the “Plasma concentration of (+) halofenic acid” value ([6]; time 4 hours)?
**A.** BQL

**Q.** What about the “Plasma concentration of (+) halofenic acid” value ([6]; time 6 hours) of the same molecule?
**A.** BQL

**Q.** What about the “Plasma concentration of (+) halofenic acid” value ([6]; time 8 hours) of the same molecule?
**A.** BQL

**Q.** What about the “Plasma concentration of (+) halofenic acid” value ([6]; time 72 hours) of the same molecule?
**A.** BQL

**Q.** And the “Plasma concentration of (+) halofenic acid” value ([6]; time 96 hours)?
**A.** BQL

**Q.** And the “Plasma concentration of (+) halofenic acid” value ([6]; time 120 hours)?
**A.** BQL

**Q.** What about the IC50 ([7]; heparinized fresh human blood, calcium ionophore A23187, TXB2 readout, read-out: IC50, inhibition of the COX-1 enzyme in blood) of the same molecule?
**A.** > 3 mM

**Q.** And the “inhibition of COX-1, in words” value ([7]; human whole blood assay)?
**A.** substantially weaker and ineffective inhibitor of the COX-1 enzyme; also recorded: much less effective than the racemate in inhibiting COX-1

**Q.** What about the “incremental glucose area under the curve (AUC) relative to vehicle control, in words” value ([8]; racemate 100 mg/kg, enantiomers 50 and 100 mg/kg) of the same molecule?
**A.** significant reductions in the glucose area; also recorded: Significant changes (p<0.05)

**Q.** What about the “plasma glucose after oral glucose challenge, in words” value ([8]; single oral dose 100 mg/kg 5.5 hours before challenge) of the same molecule?
**A.** greatest degree of glucose-lowering of all the treated animals

**Q.** What about the “plasma glucose after oral glucose challenge, in words” value ([8]; single oral dose 5.5 hours before challenge, racemate 100 mg/kg, enantiomers 50 and 100 mg/kg) of the same molecule?
**A.** most effective in lowering the glucose; also recorded: lower glucose levels that persisted at 90-120 minutes

**Q.** What about the “plasma cholesterol, in words” value [9] of the same molecule?
**A.** significant decrease in plasma cholesterol

**Q.** What about the “plasma cholesterol, in words” value ([9]; listed as (−) enantiomer) of the same molecule?
**A.** plasma cholesterol declined with treatment; also recorded: most active of the species tested

**Q.** And the “days of treatment with significantly lower plasma cholesterol vs control” value ([9]; Experiment II, 12.5 mg/kg/day (Low dose))?
**A.** 7 days

**Q.** And the “plasma cholesterol lowering, in words” value ([9]; Experiment II)?
**A.** much greater decline in plasma cholesterol

**Q.** And the “plasma triglyceride, in words” value ([9]; Experiment II, listed as (−) enantiomer of halofenate)?
**A.** greater magnitude

**Q.** And the “plasma cholesterol lowering, in words” value [9, 11]?
**A.** greatest extent of cholesterol lowering

**Q.** And the “plasma triglyceride, in words” value [9, 11]?
**A.** lowest triglyceride levels of all the treatment groups; also recorded: significant lowering of plasma triglyceride

From patent US8481597B2, “Use of (-) (3-trihalomethylphenoxy) (4-halophenyl) acetic acid derivatives for treatment of insulin resistance, type 2 diabetes, hyperlipidemia and hyperuricemia” (Metabolex, Inc., priority 1999, dated 2013)
